Data published in patent EP2141163A1, “Substituted thiazolidinones, their production and utilisation as medicine” (Bayer Schering Pharma Aktiengesellschaft, priority 2008, dated 2010).

Assays:
NCI-H460 = assay: Proliferation assay (crystal violet staining), NCI-H460; assay type: cell-based, human; settings: Homo sapiens, 96 h, tumour cell proliferation, 4 days incubation, read-out: Inhibition IC50 [M] (NCI-H460)
Protocol: (§1) Kultivierte humane Tumorzellen (MCF7, […] menschliche Mammakarzinomazellen, bezogen von ATCC HTB22; NCI-H460, menschliche nicht kleinzellige Lungenkarzinomazellen, ATCC HTB-177; DU 145, hormonunabhängige menschliche Prostatakarzinomazellen, ATCC HTB-81; HeLa-MaTu, humane Cervixkarzinomazellen, bezogen von EPO-GmbH, Berlin,) werden in einer Dichte von 5000 (MCF7, DU145) bzw. 3000 (NCI-H460, HeLa-MaTu) Zellen/Messpunkt in einer 96-Loch Multititerplatte in 200 µl des entsprechenden Wachstumsmediums ausplattiert. Nach 24 Stunden werden die Zellen einer Platte (Nullpunkt-Platte) mit Kristallviolett gefärbt (s.u.), während das Medium der anderen Platten durch frisches Kulturmedium (200 µl), dem die Testsubstanzen in verschiedenen Konzentrationen (0 µM, sowie im Bereich 0,01 - 30 µM; die finale Konzentration des Lösungsmittels Dimethylsulfoxid beträgt 0,5%) zugesetzt sind, ersetzt. Die Zellen werden für 4 Tage in Anwesenheit der Testsubstanzen inkubiert. Die Zellproliferation wird durch Färbung der Zellen mit Kristallviolett bestimmt: Die Zellen werden durch Zugabe von 20 µl/Messpunkt einer 11%igen Glutaraldehyd-Lösung 15 min bei Raumtemperatur fixiert. Nach dreimaligem Waschen der fixierten Zellen mit Wasser werden die Platten bei Raumtemperatur getrocknet. Die Zellen werden durch Zugabe von 100 µl/Messpunkt einer 0,1%igen Kristallviolett-Lösung (pH durch Zugabe von Essigsäure auf pH3 eingestellt) gefärbt. Nach dreimaligem Waschen der gefärbten Zellen mit Wasser werden die Platten bei Raumtemperatur getrocknet. Der Farbstoff wird durch Zugabe von 100 µl/Messpunkt einer 10%igen Essigsäure-Lösung gelöst. Die Extinktion wird photometrisch bei einer Wellenlänge von 595 nm bestimmt. Die prozentuale Änderung des Zellwachstums wird durch Normalisierung der Messwerte auf die Extinktionwerte der Nullpunktplatte (=0%) und die Extinktion der unbehandelten (0 µM) Zellen (=100%) berechnet. IC50-Werte werden nach einer 4-Parameterkurvenanpassung mit Hilfe eines Firmeneigenen Computerprogramms berechnet.

PLK-1 = biological target: T1, PLK-1 (Homo sapiens, UniProt P53350); assay: PLK-1 enzyme assay at 10 mM ATP (indirect HTRF assay); assay type: biochemical; settings: read-out: Inhibition PLK-1 IC50 [M] (10 mM ATP)
T1 construct: Fusionsprotein bestehend aus GST und Plk (Kinase Domäne 33-345; MW 36 kDa, conc 0,8 µg/µl); GST; made in house; host or cells: Hi5 insect cells
Protocol: PLK Enzym-Assay (10 mM ATP)
Für den Kinaseassay wird aus Insektenzellen (Hi5) exprimiertes, durch Glutathion-Sepharose-Affinitätschromatographie und anschließender Gel-filtration (Suerdex 75) gereinigtes rekombinantes Fusionsprotein bestehend aus GST und Plk (Kinase Domäne 33-345; MW 36 kDa, conc 0,8 µg/µl) verwendet. Aliqots hiervon werden in flüssigem Stickstoff weggefroren und bei -80°C gelagert und nach dem Auftauen nur einmal verwendet.
Bei dem verwendeten Assay handelt es sich um einen indirekten HTRF-Assay, bei dem folgende Materialien und Verfahrensweisen zum Einsatz kamen. Als Substrat für die Kinasereaktion wird das biotinylierte Peptid Btn-Ahx-KKLNRTLSFAEPG-Amid x TFA, von Biosyntan, Probennr.: 6178.1 (C-Terminus in Amidform) verwendet. Hierbei handelt es sich um eine artifizielle Sequenz, die von keinem bekannten Protein abgeleitet wurde.
50 nl der in 100% Dimethylsulfoxid (DMSO) gelösten Testverbindungen (Endkonzentrationen : 0 µM und Konzentrationen im Bereich von 0,001 - 20 µM) werden mit 2 µl Enzym Arbeitslösung (0,039 ng/µl Plk-1 im Arbeitspuffer [25 mM MgCl2; 1mM DTT; 50 mM Hepes pH 7,0; 0,01% NP40; 1x Complete; 0,05% BSA] für 30 min vorinkubiert. Anschließend wird die Kinase-Reaktion durch Zugabe von 3 µl Substratlösung [16,7 mM Adenosintriphosphate (ATP) und 1,4 µM Substratpeptid (Biotin-Ttds- KKLNRTLSFAEPG -NH2)] in Arbeitspuffer gestartet, und nach 30 min durch Zugabe einer Abstopp-Lösung (100 mM EDTA, 100 mM Hepes pH 7,5, 800 mM Potassiumfluoride, 0,12% BSA, 0,4 µM SA-XLent (0,05 µM, von CIS bio international, Marcoule, Frankreich), Eu^3+ Cryptate-conjugated Rabbit anti-Mouse IgG (1,5 nM; ein mit Europiumkryptat markierter Anti-Maus-IgG-Antikörper von CIS bio international, Marcoule, Frankreich), 1 nM Anti-phospho-Serine Kinase (ein phospho-spezifischer Antikörper von Upstate Biotechnology, Dundee, Schottland), gestoppt, und bei 4°C über Nacht inkubiert. Danach wird die Menge des phosphorylierten Substratpeptids durch Messung des Resonanzenergietransfers vom Europium-markierten Antikörperkomplex zum Streptavidine-XLent bestimmt. Zu diesem Zweck wird die Fluoreszenzemission bei 620 nm und 665 nm nach Anregung bei 350 nm in einem HTRF-Messgerät, z. B. Rubystar (BMG Labtechnologies, Offenburg, Deutschland) oder Viewlux (Perkin-Elmer), bestimmt. Das Verhältnis der Emissionen bei 665 nm und bei 620 nm wird als Maß für die Menge des phosphorylierten Substratpeptids verwendet. Die Daten werden normalisiert (Enzymreaktion ohne Inhibitor = 0 % Inhibition, alle anderen Assaykomponenten, aber kein Enzym = 100 % Inhibition), und IC50-Werte werden durch einen 4 Parameter-Fit mit einer hauseigenen Software berechnet.

DU145 = assay: Proliferation assay (crystal violet staining), DU145; assay type: cell-based, human; settings: Homo sapiens, DU-145, 96 h, tumour cell proliferation, 4 days incubation, read-out: Inhibition IC50 [M] (DU145)
Protocol: as §1

MCF-7 = assay: Proliferation assay (crystal violet staining), MCF-7; assay type: cell-based, human; settings: Homo sapiens, MCF7, 96 h, tumour cell proliferation, 4 days incubation, read-out: Inhibition IC50 [M] (MCF-7)
Protocol: as §1

T1 sequence (P53350 33-345): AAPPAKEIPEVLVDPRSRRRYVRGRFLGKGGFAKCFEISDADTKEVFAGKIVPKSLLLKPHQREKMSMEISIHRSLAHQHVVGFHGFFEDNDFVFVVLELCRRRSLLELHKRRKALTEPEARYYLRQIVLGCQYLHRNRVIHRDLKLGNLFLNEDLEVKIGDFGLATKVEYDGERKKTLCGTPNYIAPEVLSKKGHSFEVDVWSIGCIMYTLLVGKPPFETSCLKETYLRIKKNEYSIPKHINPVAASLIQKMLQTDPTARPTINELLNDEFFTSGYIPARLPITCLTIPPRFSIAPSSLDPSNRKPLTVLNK

SMILES: CCn1c(=O)c(=CNc2ccc3c(C(=O)C(C)(C)C)cn(C4CCN(C)CC4)c3c2)s/c1=C(/C#N)C(=O)NCC#N [B183]
- IC50 (NCI-H460): 3.2e-07 M
- IC50 (PLK-1): 4.2e-09 M
- IC50 (DU145): 1.3e-07 M
- IC50 (MCF-7): 1.6e-07 M

SMILES: CCn1c(=C(C#N)C(=O)NCC(F)(F)F)sc(=CNc2ccc3ccn(C4CCOCC4)c3c2)c1=O [B59]
- IC50 (NCI-H460): 1.8e-07 M
- IC50 (PLK-1): 3.7e-08 M
- IC50 (DU145): 1.7e-07 M
- IC50 (MCF-7): 3.9e-07 M

SMILES: CCn1c(=C(C#N)C(=O)NCC#N)sc(=CNc2ccc3c(c2)c(C2CCN(C4CC4)CC2)cn3C)c1=O [B115]
- IC50 (NCI-H460): 1.3e-07 M
- IC50 (PLK-1): 1.3e-09 M
- IC50 (DU145): 3.7e-08 M
- IC50 (MCF-7): 1.1e-07 M

SMILES: CCn1c(=O)c(=CNc2ccc3ccn(C4CCN(C)CC4)c3c2)s/c1=C(/C#N)C(=O)NC(c1ccco1)C(F)(F)F (stereo not shown) [B176]
- IC50 (NCI-H460): 3.9e-07 M
- IC50 (PLK-1): 6.2e-08 M
- IC50 (DU145): 2.1e-07 M
- IC50 (MCF-7): 1.2e-07 M

SMILES: CCn1c(=O)c(=CNc2ccc3c(c2)c(C2CCN(C4CC4)CC2)cn3C)s/c1=C(/C#N)C(=O)NCC(F)(F)F [B123]
- IC50 (NCI-H460): 5e-07 M
- IC50 (PLK-1): 1.2e-08 M
- IC50 (DU145): 2.3e-07 M
- IC50 (MCF-7): 6.2e-07 M

SMILES: CCn1c(=C(C#N)C(=O)NC(C)(C)CO)sc(=CNc2ccc3ccn(C4CCN(C)CC4)c3c2)c1=O [B06]
- IC50 (NCI-H460): 1.5e-07 M
- IC50 (PLK-1): 1e-08 M
- IC50 (DU145): 1.2e-07 M
- IC50 (MCF-7): 2.4e-07 M

SMILES: CCCN1CCC(c2cn(CC)c3ccc(NC=c4sc(=C(C#N)C(=O)NCC#N)n(CC)c4=O)cc23)CC1 [B109]
- IC50 (NCI-H460): 1.6e-07 M
- IC50 (PLK-1): 3.5e-09 M
- IC50 (DU145): 5.4e-08 M
- IC50 (MCF-7): 1.4e-07 M

SMILES: CCN1CCCC1Cn1ccc2ccc(NC=c3sc(=C(C#N)C(=O)NCC(F)(F)F)n(CC)c3=O)cc21 (stereo not shown) [B58]
- IC50 (NCI-H460): 4.8e-07 M
- IC50 (PLK-1): 2e-08 M
- IC50 (DU145): 3.2e-07 M
- IC50 (MCF-7): 3.7e-07 M

SMILES: CCn1c(=O)c(=CNc2ccc3c(Cl)cn([C@H]4CC[C@H](N(C)C)CC4)c3c2)s/c1=C(/C#N)C(=O)NCC#N [B165]
- IC50 (NCI-H460): 6.1e-07 M
- IC50 (PLK-1): 1.3e-09 M
- IC50 (DU145): 1.8e-07 M
- IC50 (MCF-7): 1.7e-07 M

SMILES: CCn1c(=C(C#N)C(=O)NCC(F)(F)F)sc(=CNc2ccc3ccn(CC(=O)N(C)C)c3c2)c1=O [B80]
- IC50 (NCI-H460): 8.9e-07 M
- IC50 (PLK-1): 4.9e-08 M
- IC50 (DU145): 5.1e-07 M
- IC50 (MCF-7): 3.1e-07 M

SMILES: CCn1c(=O)c(=CNc2ccc3ccn([C@H]4CCCC[C@H]4N(C)C)c3c2)s/c1=C(/C#N)C(=O)NCC#N (relative stereo) [B193]
- IC50 (NCI-H460): 2.6e-07 M
- IC50 (PLK-1): 1.4e-08 M
- IC50 (DU145): 1.8e-07 M
- IC50 (MCF-7): 1.8e-07 M

SMILES: CCn1c(=C(C#N)C(=O)NCC#N)sc(=CNc2ccc3cnn(C4CCN(C(C)C)CC4)c3c2)c1=O [B44]
- IC50 (NCI-H460): 4.9e-07 M
- IC50 (PLK-1): 1.1e-09 M
- IC50 (DU145): 1.1e-07 M
- IC50 (MCF-7): 2e-07 M

SMILES: CCn1c(=O)c(=CNc2ccc3c(Cl)cn(C4CCN(C)CC4)c3c2)s/c1=C(/C#N)C(=O)NCC#N [B153]
- IC50 (NCI-H460): 5.9e-07 M
- IC50 (PLK-1): 1e-09 M
- IC50 (DU145): 1.4e-07 M
- IC50 (MCF-7): 4.2e-07 M
